# Like-named read-outs stand apart in the source and are kept apart here.
# What was measured:
# Spodoptera frugiperda = Spodoptera frugiperda - spray application; assay type: in vivo; settings: for mortality at 20 g/ha: 20 g ai/ha
# Protocol: (§1) To produce a suitable preparation of active compound, 1 part by weight of active compound is mixed with the stated amount of solvent and emulsifier, and the concentrate is diluted with emulsifier-containing water to the desired concentration. To produce a suitable preparation of a biological suspension the cells, viruses or spores are diluted with emulsifier-containing water to the desired concentration.
# Cabbage (Brassica oleracea) leaf-discs are sprayed with a preparation of the active ingredient at the desired concentration. Once dry, the leaf discs are infested with larvae of the fall army worm (Spodoptera frugiperda).
# After the specified period of time, mortality in % is determined. 100% means that all the caterpillars have been killed; 0% means that none of the caterpillars have been killed. The mortality values thus determined are recalculated using the Colby-formula.
# [1] = tested on: Phaedon cochleariae larvae; experiment: whole plant or invertebrate
# Myzus persicae [2] = experiment: whole plant or invertebrate; settings: in Brassica rapa, foliar
# [3] = tested on: Tetranychus urticae (OP-resistant); experiment: Tetranychus urticae - test (OP-resistant), French bean leaf discs; assay type: in vivo; settings: for mortality at 0.16 g/ha: 0.16 g ai/ha; for mortality at 500 g/ha: 500 g ai/ha
# Protocol: as §1, with “cells” for “cells, viruses”
# Leaf discs of French beans (Phaseolus vulgaris) infected with all instars of the Two-spotted spider mite (Tetranychus urticae), are sprayed with a preparation of the active ingredient at the desired concentration.
# After the specified period of time mortality in % is determined. 100% means that all spider mites have been killed; 0% means that none of the spider mites have been killed.
# [4] = tested on: Phaedon cochleariae larvae
# Myzus persicae [5] = tested on: Myzus persicae
# [6] = Spodoptera frugiperda, 0.16 g ai/ha, read-out: Mortality in % after 6^d
# [7] = read-out: Mortality in % after 6^d
# [8] = read-out: Mortality in % after 2^d
# [9] = Tetranychus urticae, foliar, 0.8 g ai/ha, read-out: Mortality in % after 2^d
# [10] = read-out: Mortality in % after 1^d
# [11] = Tetranychus urticae, foliar, read-out: Mortality in % after 2^d
# [12] = Spodoptera frugiperda, read-out: Mortality in % after 2^d
# [13] = Tetranychus urticae, foliar, 4 g ai/ha, read-out: Mortality in % after 2^d
molecule,measurement,setting,value
Cc1c(COC(=O)[C@@H]2[C@H](/C=C(\Cl)C(F)(F)F)C2(C)C)cccc1-c1ccccc1 (racemic) [Bifenthrin],mortality at 0.16 g/ha,Spodoptera frugiperda; [6],0%
same,mortality at 0.8 g/ha,[1]; [7],50%
"CC1(C)[C@H](C(=O)O[C@H](C#N)c2cccc(Oc3ccccc3)c2)[C@@H]1/C=C(\Cl)C(F)(F)F (racemic) [Lambda-Cyhalothrin, lambda-Cyhalothrin]",mortality at 0.16 g/ha,Spodoptera frugiperda; [6],33%
same,mortality at 0.16 g/ha,Myzus persicae [2]; [7],0%
same,mortality at 0.8 g/ha,[1]; [8],67%
Cc1c(F)c(F)c(COC(=O)[C@@H]2[C@H](/C=C(\Cl)C(F)(F)F)C2(C)C)c(F)c1F (racemic) [Tefluthrin],mortality at 0.8 g/ha,[3]; [9],0%
same,mortality at 20 g/ha,[1]; [7],50%
C/C(=N\C#N)N(C)Cc1ccc(Cl)nc1 [Acetamiprid],mortality at 20 g/ha,[1]; [7],33%
CC1(C)[C@H](C(=O)O[C@H](C#N)c2cccc(Oc3ccccc3)c2)[C@@H]1/C=C\C(=O)OC(C(F)(F)F)C(F)(F)F [Acrinathrin],mortality at 0.8 g/ha,Myzus persicae [2]; [10],80%
"CC1(C)C(C=C(Cl)Cl)C1C(=O)OC(C#N)c1cccc(Oc2ccccc2)c1 (stereo not drawn) [Alpha-Cypermethrin, alpha-Cypermethrin]",mortality at 0.16 g/ha,[3]; [11],0%
same,mortality at 4 g/ha,[1]; [7],0%
C/C=C(\C)C(=O)O[C@H]1C[C@@H](OC(C)=O)[C@@]2(C(=O)OC)CO[C@H]3[C@@H](O)[C@@](C)([C@]45O[C@@]4(C)[C@H]4C[C@@H]5O[C@@H]5OC=C[C@@]54O)[C@H]4[C@]1(CO[C@]4(O)C(=O)OC)[C@@H]32 [Azadirachtin],mortality at 100 g/ha,"[3]; Tetranychus urticae, foliar, 100 g ai/ha, read-out: Mortality in % after 2^d",0%
same,mortality at 100 g/ha,Myzus persicae [2]; [7],0%
"CC1(C)C(C=C(Cl)Cl)C1C(=O)OC(C#N)c1ccc(F)c(Oc2ccccc2)c1 (stereo not drawn) [Beta-Cyfluthrin, beta-Cyfluthrin]",Mortality in % after 6^d,Spodoptera frugiperda; 0.8 g ai/ha,83%
same,Mortality in % after 6^d,[4]; 0.8 g ai/ha,50%
CC(C)N1C(=O)N(c2ccccc2)CS/C1=N\C(C)(C)C [Buprofezin],mortality at 500 g/ha,[3]; [11],0%
"CNC(=O)c1cc(Cl)cc(C)c1NC(=O)c1cc(Br)nn1-c1ncccc1Cl [Chloranthraniliprole, Chlorantraniliprole]",mortality at 4 g/ha,Myzus persicae [2]; [7],80%
same,mortality at 0.8 g/ha,[1]; [7],33%
CCOCn1c(-c2ccc(Cl)cc2)c(C#N)c(Br)c1C(F)(F)F [Chlorfenapyr],mortality at 0.8 g/ha,[3]; [9],0%
CCOP(=S)(OCC)Oc1nc(Cl)c(Cl)cc1Cl [Chlorpyrifos],mortality at 100 g/ha,Spodoptera frugiperda; [12],50%
same,mortality at 4 g/ha,[3]; [11],0%
same,mortality at 4 g/ha,Myzus persicae [2]; [10],70%
CN/C(=N\[N+](=O)[O-])NCc1cnc(Cl)s1 [Clothianidin],mortality at 20 g/ha,Myzus persicae [2]; [10],0%
same,mortality at 20 g/ha,[1]; [7],83%
CC1(C)C(C=C(Cl)Cl)C1C(=O)OC(C#N)c1cccc(Oc2ccccc2)c1 (stereo not drawn) [Cypermethrin],mortality at 0.8 g/ha,"Spodoptera frugiperda; Spodoptera frugiperda, 0.8 g ai/ha, read-out: Mortality in % after 6^d",67%
CC1(C)[C@H](C(=O)O[C@H](C#N)c2cccc(Oc3ccccc3)c2)[C@@H]1C=C(Br)Br [Deltamethrin],mortality at 0.032 g/ha,"Spodoptera frugiperda; Spodoptera frugiperda, 0.032 g ai/ha, read-out: Mortality in % after 6^d",0%
O=C(NC(=O)c1c(F)cccc1F)Nc1ccc(Cl)cc1 [Diflubenzuron],mortality at 100 g/ha,"Spodoptera frugiperda; Spodoptera frugiperda, 100 g ai/ha, read-out: Mortality in % after 2^d",67%
same,mortality at 4 g/ha,[3]; [13],0%
CN/C(=N/CC1CCOC1)N[N+](=O)[O-] (stereo not drawn) [Dinotefuran],mortality at 20 g/ha,Myzus persicae [2]; [10],0%
same,mortality at 20 g/ha,[1]; [7],0%
N#Cc1nn(-c2c(Cl)cc(C(F)(F)F)cc2Cl)c(N)c1[S+]([O-])C(F)(F)F (stereo not drawn) [Fipronil],mortality at 0.8 g/ha,[3]; [9],0%
same,mortality at 0.16 g/ha,[1]; [8],0%
O=S(=O)(CCC(F)=C(F)F)c1ncc(Cl)s1 [Fluensulfone],Mortality in % after 2^d,[3]; 2000 g ai/ha,0%
O=C(NC(=O)c1c(F)cccc1F)Nc1ccc(Oc2ccc(C(F)(F)F)cc2Cl)cc1F [Flufenoxuron],mortality at 0.8 g/ha,[3]; [9],0%
same,mortality at 20 g/ha,[1]; [7],0%
O=C1C=C(N(Cc2ccc(Cl)nc2)CC(F)F)CO1 [Flupyradifurone],Mortality in % after 2^d,[3]; 0.8 g ai/ha,0%
same,Mortality in % after 1^d,Myzus persicae [5]; 20 g ai/ha,70%
same,Mortality in % after 2^d,[4]; 500 g ai/ha,50%
"CC1(C)[C@H](C(=O)O[C@H](C#N)c2cccc(Oc3ccccc3)c2)[C@@H]1/C=C(\Cl)C(F)(F)F [Gamma-Cyhalothrin, gamma-Cyhalothrin]",Mortality in % after 2^d,Spodoptera frugiperda; 0.16 g ai/ha,0%
O=[N+]([O-])NC1=NCCN1Cc1ccc(Cl)nc1 [Imidacloprid],mortality at 0.8 g/ha,[3]; [9],0%
same,mortality at 0.8 g/ha,Myzus persicae [2]; [10],0%
same,mortality at 20 g/ha,[1]; [7],0%
COC(=O)N(C(=O)N1CO[C@@]2(C(=O)OC)Cc3cc(Cl)ccc3C2=N1)c1ccc(OC(F)(F)F)cc1 [Indoxacarb],Mortality in % after 6^d,Spodoptera frugiperda; 0.8 g ai/ha,50%
CCN(Cc1ccc(Cl)nc1)/C(=C/[N+](=O)[O-])NC [Nitenpyram],mortality at 0.8 g/ha,[3]; [9],0%
same,mortality at 20 g/ha,[1]; [7],0%
CC1=NNC(=O)N(/N=C/c2cccnc2)C1 [Pymetrozine],mortality at 4 g/ha,Myzus persicae [2]; [7],0%
"CC(=O)N1C(=O)N(NCc2cccnc2)Cc2cc(C(F)(C(F)(F)F)C(F)(F)F)ccc21 [Pyrifluquinazone, Pyrifluquinazon]",Mortality in % after 2^d,[3]; 0.8 g ai/ha,0%
CC(c1ccc(C(F)(F)F)nc1)S(C)(=O)=NC#N (stereo not drawn) [Sulfoxaflor],mortality at 0.16 g/ha,[3]; [11],0%
same,mortality at 0.16 g/ha,Myzus persicae [2]; [10],0%
same,mortality at 4 g/ha,[1]; [7],0%
CCc1nn(C)c(C(=O)NCc2ccc(C(C)(C)C)cc2)c1Cl [Tebufenpyrad],mortality at 4 g/ha,[3]; [13],0%
N#C/N=C1\SCCN1Cc1ccc(Cl)nc1 [Thiacloprid],mortality at 20 g/ha,"Spodoptera frugiperda; Spodoptera frugiperda, read-out: Mortality in % after 6^d",0%
same,mortality at 20 g/ha,[1]; [7],33%
CN1COCN(Cc2cnc(Cl)s2)/C1=N\[N+](=O)[O-] [Thiamethoxam],mortality at 20 g/ha,[1]; [8],67%
CS/C(C)=N\OC(=O)N(C)SN(C)C(=O)O/N=C(\C)SC [Thiodicarb],mortality at 4 g/ha,[3]; [13],0%
same,mortality at 100 g/ha,[1]; [7],0%
Cc1ccc(C(C)C)c(O)c1 [Thymol],mortality at 500 g/ha,"[3]; Tetranychus urticae, foliar, read-out: Mortality in % after 6^d",0%
O=C(NC(=O)c1ccccc1Cl)Nc1ccc(OC(F)(F)F)cc1 [Triflumuron],mortality at 20 g/ha,Spodoptera frugiperda; [12],0%
same,mortality at 20 g/ha,[1]; [7],0%
Abamectin,Mortality in % after 2^d,[3]; 0.032 g ai/ha,0%
Emamectin benzoate [Emamectin-benzoate],Mortality in % after 2^d,[4]; 0.8 g ai/ha,67%
Lepimectin,Mortality in % after 2^d,[4]; 4 g ai/ha,50%
Milbemectin,Mortality in % after 6^d,Spodoptera frugiperda; 0.8 g ai/ha,0%
same,Mortality in % after 6^d,Myzus persicae [5]; 4 g ai/ha,70%
Spinetoram,Mortality in % after 2^d,[3]; 0.8 g ai/ha,0%
Spinosad,Mortality in % after 2^d,[3]; 0.8 g ai/ha,0%
